Data on 12 molecules can be found in publication PMC6264390, “Design, Synthesis and Structure-activity Studies of Rhodanine Derivatives as HIV-1 Integrase Inhibitors” (Molecules, 2010).

Series [1] deals with T1, HIV-1 IN (Human immunodeficiency virus type 1 group M subtype B, UniProt P12497).
T1 construct: pre-incubated with purified recombinant IN (at a final concentration of 200 nM); made in house
Put plainly: In vitro IN inhibition assay (3’-processing and strand transfer). In kind it is biochemical. As to conditions: for IC50: Mn2+ cofactor (7.5 mM MnCl2). How it is done:
(§1) All compounds were dissolved in DMSO to a final stock concentration of 10 mM and stored at −20 °C. Initial screening for IN inhibitory effect was done at 100 μM and dilutions were made in DMSO. Compounds showing at least 50% inhibition at 100 μM were selected for IC50 determinations. γ-[^32P]-ATP was purchased from Perkin Elmer (Waltham, MA, USA). The expression system for wild-type IN was a generous gift of Dr. Robert Craigie, Laboratory of Molecular Biology, NIDDK, NIH (Bethesda, MD, USA). His-tagged APE1 was purified from an expression system kindly provided by Dr. Tom Curran, Department of Developmental Neurobiology, St. Jude Children’s Research Hospital (Memphis, TN, USA).
(§2) 21-mer oligonucleotides used in IN inhibition assay [21top (5’-[…]-3’) and 21bot (5’-ACTGCTAGAGATTTTCCA CAC-3’)] were purchased from Integrated DNA Technologies (Coralville, IA, USA) and purified by UV shadowing on polyacrylamide gel. The oligonucleotides used in APE1 inhibition assay [top strand: 5′-ATTTCACCGGTACG(F)TCTAGAATC CG-3′ containing the tetrahydrofuran synthetic abasic residue (F), and bottom strand: 3′-TAAAGTGG CCATGC(C)AGATCTTAGGC-5′] were purchased from The Midland Certified Reagent Company (Midland, TX, USA). To analyze the extent of 3’-processing and strand transfer with 5’-end labeled substrates, 21top was 5’-end labeled using T4 polynucleotide kinase (Epicentre, Madison, WI, USA) and [γ-^32P]-ATP (Perkin Elmer, Waltham, MA, USA). The kinase was heat-inactivated at 95 °C and 21bot was added in […]. The reaction mixture was allowed to cool slowly to room temperature, and purified through a spin-25 minicolumn (USA Scientific, Ocala, FL, USA) to separate annealed double-stranded oligonucleotide from unincorporated material. The oligonucleotides used in the APE1 inhibition assay were labeled using a similar protocol.
To determine the extent of 3’-processing and strand transfer, the test compounds, diluted in DMSO, were pre-incubated with purified recombinant IN (at a final concentration of 200 nM) in the reaction buffer [50 mM NaCl, 1 mM HEPES (pH 7.5), 50 μM EDTA, 50 μM dithiothreitol, 10% glycerol (w/v), 7.5 mM MnCl2, 0.1 mg mL–1 bovine serum albumin, 10 mM 2-mercaptoethanol, 10% dimethyl sulfoxide, and 25 mM MOPS (pH 7.2)] at 30 °C for 30 min. For Mg^2+ assay, 7.5 mM MgCl2 was substituted for MnCl2 and an optimal concentration of PEG was included in the reaction buffer. Following the pre-incubation, 20 nM of the 5’-end ^32P-labeled linear oligonucleotide substrate was added to the reaction mixture and incubated for an additional 1 h. Reactions were quenched by addition of 50X loading dye (98% deionized formamide, 10 mM EDTA, 0.025% xylene cyanol, and 0.025 % bromophenol blue). An aliquot was subjected to electrophoresis on a denaturing polyacrylamide gel (0.09 M tris–borate, pH 8.3, 2 mM EDTA, 20% acrylamide, 8M urea). Gels were dried under vacuum, exposed in a PhosphorImager cassette and visualized with a Typhoon 8610 Variable Mode Imager (Amersham Biosciences). Quantification was done with Image Quant 5.2 software. Percent inhibition (%I) was calculated using the following equation: %I = 100 × [1 − (D − C) / (N − C)] where C, N, and D are the fractions of 21-mer substrate converted into 19-mer (product of 3’-processing) or strand-transfer products for DNA alone, DNA plus IN, and DNA, IN plus test compound, respectively. IC50 values were determined by plotting the logarithm of test compound concentrations as a function of %I to obtain the concentration that produced 50% inhibition.

Series [2] concerns the target T2, human apurinic/apyrimidinic endonuclease 1 (APE1) (Homo sapiens, UniProt P27695).
T2 construct: His; made in house
Put plainly: APE1 inhibition assay. Format: biochemical. As to conditions: read-out: Inhibition of APE1 catalytic activity IC50. As to the method: as §1, §2
APE1 inhibition assay was performed as previously described. To determine the extent of endonucleolytic cleavage of the abasic residue, the test compounds, diluted in DMSO, were preincubated with recombinant APE1 at a final concentration of 0.05 nM in the reaction buffer [50 mM NaCl, 1 mM HEPES, pH 7.5, 50 μM EDTA, 50 μM dithiothreitol, 10% glycerol (w/v), 7.5 mM MnCl2, 0.1 mg mL‑1 bovine serum albumin, 10 mM 2-mercaptoethanol, 10% DMSO, and 25 mM MOPS, pH 7.2] at 30 °C for 10 min. Following preincubation, 200 nM of the 5′-end ^32P-labeled linear oligonucleotide substrate was added, and incubated for an additional 10 minutes. Reactions were quenched by the addition of an equal volume (16 μL) of loading dye (98% deionized formamide, 10 mM EDTA, 0.025% xylene cyanol, and 0.025% bromophenol blue). An aliquot (5 μL) was electrophoresed on a denaturing 20% polyacrylamide gel (0.09 M tris-borate pH 8.3, 2 mM EDTA, 20% acrylamide, 8 M urea). The gels were dried, exposed in a PhosphorImager cassette and analyzed using a Typhoon 8610 Variable Mode Imager (Amersham Biosciences). Quantification of enzyme inhibition was done using Image Quant 5.2 software. The percent inhibition (% I) was calculated using the following equation: %I = 100 × [1 − (D − C) / (N − C)] where C, N, and D are the fractions of 26-mer substrate converted to 13-mer incision products (or integration products) for DNA alone, DNA plus APE1, and DNA, APE1 plus test compound, respectively. IC50 values were determined by plotting the logarithm of compound concentration as a function of %I to obtain the concentration that produced 50% inhibition. An optimum concentration of APE1 enzyme, at which there is complete conversion of the synthetic abasic-site containing oligonucleotide substrate to its cleaved product without subsequent exonuclease activity, was used in the assay.

The mark [3] stands for this setting: read-out: Inhibition of IN catalytic activity IC50, 3’-Processing.
Setting [4] is: read-out: Inhibition of IN catalytic activity IC50, Strand Transfer.

Where two headings read alike, the source gives them in different places.

T2 sequence (P27695 whole entry): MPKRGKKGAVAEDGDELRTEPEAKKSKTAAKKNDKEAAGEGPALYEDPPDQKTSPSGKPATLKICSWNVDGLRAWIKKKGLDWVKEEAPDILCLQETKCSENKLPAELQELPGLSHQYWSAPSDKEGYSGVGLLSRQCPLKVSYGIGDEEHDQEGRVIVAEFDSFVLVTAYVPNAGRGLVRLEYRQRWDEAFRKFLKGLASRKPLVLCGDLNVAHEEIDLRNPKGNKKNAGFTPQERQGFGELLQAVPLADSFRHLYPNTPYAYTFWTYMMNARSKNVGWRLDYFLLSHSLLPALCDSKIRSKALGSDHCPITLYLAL

As a reminder, the IC50 is the concentration that gives 50% inhibition. In general, melting point refers to the temperature, or range, at which the solid turns liquid. In the case of `COc1cc(NC(=O)C(=S)NN2C(=O)C(=Cc3cc([N+](=O)[O-])ccc3O)SC2=S)cc(OC)c1OC` [Compound 30, 2-{[5-(2-Hydroxy-5-nitrobenzylidene)-4-oxo-2-thioxo-1,3-thiazolidin-3-yl]amino}-2-thioxo-N-(3,4,5-trimethoxyphenyl)acetamide], the melting point was 205 to 206 °C. Besides, the IC50 in series [1] (setting [3]) stood at 47 ± 30 µM. For the same molecule, the concentration for half-maximal inhibition (IC50) in series [1] (setting [4]) was above 100 µM. In addition, in series [2], the IC50 was above 100 µM.
`CCOc1cccc(C=C2SC(=S)N(NC(=S)C(=O)Nc3cc(OC)c(OC)c(OC)c3)C2=O)c1O` [Compound 31, 2-{[5-(3-Ethoxy-2-hydroxybenzylidene)-4-oxo-2-thioxo-1,3-thiazolidin-3-yl]amino}-2-thioxo-N-(3,4,5-trimethoxyphenyl)acetamide] returned a melting point of 231 to 232 °C. Also, the IC50 in series [1] (setting [3]) is above 100 µM. Also, the half-maximal inhibitory concentration (IC50) in series [1] (setting [4]) is above 100 µM. For the same molecule, in series [2], the half-maximal inhibitory concentration (IC50) was above 100 µM.
As to `C=CCc1cccc(C=C2SC(=S)N(NC(=S)C(=O)Nc3cc(OC)c(OC)c(OC)c3)C2=O)c1O` [Compound 32, 2-{[5-(3-Allyl-2-hydroxybenzylidene)-4-oxo-2-thioxo-1,3-thiazolidin-3-yl]amino}-2-thioxo-N-(3,4,5-trimethoxyphenyl)acetamide], the melting point was 174 to 175 °C. Also, in series [1] (setting [3]), the IC50 came out at 82 ± 5 µM. The IC50 in series [1] (setting [4]) was found to be 83 ± 3 µM. Also, the IC50 in series [2] was above 100 µM.
The corresponding values for `CCN(CC)c1ccc(C=C2SC(=S)N(NC(=S)C(=O)Nc3cc(OC)c(OC)c(OC)c3)C2=O)c(O)c1` [Compound 33, 2-({5-[4-(Diethylamino)-2-hydroxybenzylidene]-4-oxo-2-thioxo-1,3-thiazolidin-3-yl}amino)-2-thioxo-N-(3,4,5-trimethoxyphenyl)acetamide] are 210 to 211 °C, above 100 µM, above 100 µM and above 100 µM.
On the same counts, the results for `COc1cc(NC(=O)C(=S)NN2C(=O)C(=Cc3cc(N=Nc4ccccc4)ccc3O)SC2=S)cc(OC)c1OC` [Compound 34, 2-[(5-{2-Hydroxy-5-[phenyldiazenyl]benzylidene}-4-oxo-2-thioxo-1,3-thiazolidin-3-yl)amino]-2-thioxo-N-(3,4,5-trimethoxyphenyl)acetamide] are 149 to 150 °C, 33 ± 19 µM, 26 ± 14 µM and above 100 µM.
`COc1cc(NC(=O)C(=S)NN2C(=O)/C(=C\c3ccc(O)c(C(=O)O)c3)SC2=S)cc(OC)c1OC` [Compound 35] gave a melting point of 239 to 240 °C. Further, the 50% inhibitory concentration (IC50) in series [1] (setting [3]) is 45 ± 24 µM. Also, the IC50 in series [1] (setting [4]) was 61 ± 11 µM. The “IN inhibition (in words)” value in series [1] (highest concentration tested 100 μM) is given as “only a moderate effect”. The IC50 in series [2] was above 100 µM.
For `COc1cc(NC(=O)C(=S)NN2C(=O)C(=Cc3cc(Cl)cc(Cl)c3O)SC2=S)cc(OC)c1OC` [Compound 36, 2-{[5-(3,5-Dichloro-2-hydroxybenzylidene)-4-oxo-2-thioxo-1,3-thiazolidin-3-yl]amino}-2-thioxo-N-(3,4,5-trimethoxyphenyl)acetamide], the melting point was 215 to 216 °C. Also, the IC50 in series [1] (setting [3]) is 46 ± 5 µM. Moreover, the IC50 in series [1] (setting [4]) is above 100 µM. Also, the concentration for half-maximal inhibition (IC50) in series [2] was above 100 µM.
Molecule `COc1cc(NC(=O)C(=S)NN2C(=O)C(=Cc3cc(Br)cc(Br)c3O)SC2=S)cc(OC)c1OC` [Compound 37, 2-{[5-(3,5-Dibromo-2-hydroxybenzylidene)-4-oxo-2-thioxo-1,3-thiazolidin-3-yl]amino}-2-thioxo-N-(3,4,5-trimethoxyphenyl)acetamide] showed a melting point of 221 to 222 °C. For the same molecule, the half-inhibitory concentration (IC50) in series [1] (setting [3]) was 33 ± 7 µM. In addition, in series [1] (setting [4]), the half-inhibitory concentration (IC50) is 35 ± 6 µM. Further, the IC50 in series [2] was above 100 µM.
`COc1cc(NC(=O)C(=S)NN2C(=O)C(=Cc3cc(I)cc(I)c3O)SC2=S)cc(OC)c1OC` [Compound 39, 2-{[5-(2-Hydroxy-3,5-diiodobenzylidene)-4-oxo-2-thioxo-1,3-thiazolidin-3-yl]amino}-N-(3,4,5-trimethoxyphenyl)-2-thioxoacetamide] yielded a melting point of 235 to 236 °C. The “decrease in potency relative to 53” value in series [1] (IN inhibition, trimethoxy versus p-hydroxyl in ring A) turned out to be 10 fold. The IC50 in series [1] (setting [3]) was determined as 47 ± 20 µM. Moreover, the IC50 in series [1] (setting [4]) was determined as 31 ± 16 µM. Besides, the IC50 in series [2] is above 100 µM.
Regarding `O=C(Nc1ccc(O)cc1)C(=S)NN1C(=O)C(=Cc2cc(Cl)ccc2O)SC1=S` [Compound 41, 2-{[5-(5-Chloro-2-hydroxybenzylidene)-4-oxo-2-thioxo-1,3-thiazolidin-3-yl]amino}-N-(4-hydroxy-phenyl)-2-thioxoacetamide], the melting point is 220 to 221 °C. For the same molecule, the 50% inhibitory concentration (IC50) in series [1] (setting [3]) is above 100 µM. Besides, in series [1] (setting [4]), the IC50 came to 67 µM. Moreover, the IC50 in series [2] was above 100 µM.
In turn, `O=C(Nc1ccc(O)cc1)C(=S)NN1C(=O)C(=Cc2cc(Br)ccc2O)SC1=S` [Compound 42, 2-{[5-(5-Bromo-2-hydroxybenzylidene)-4-oxo-2-thioxo-1,3-thiazolidin-3-yl]amino}-N-(4-hydroxy-phenyl)-2-thioxoacetamide] gave a melting point of 190 to 191 °C. The concentration for half-maximal inhibition (IC50) in series [1] (setting [3]) is above 100 µM. Moreover, in series [1] (setting [4]), the IC50 is above 100 µM. In addition, in series [2], the IC50 was above 100 µM.
Take `O=C(Nc1ccc(O)cc1)C(=S)NN1C(=O)C(=Cc2cccc([N+](=O)[O-])c2O)SC1=S` [Compound 43, 2-{[5-(2-Hydroxy-3-nitrobenzylidene)-4-oxo-2-thioxo-1,3-thiazolidin-3-yl]amino}-N-(4-hydroxy-phenyl)-2-thioxoacetamide]: the melting point was in the range of 179 to 180 °C. In series [1] (setting [3]), the IC50 was above 100 µM. Further, the IC50 in series [1] (setting [4]) worked out at 88 µM. Besides, the IC50 in series [2] is above 100 µM.
